From article PMC3992280 (Biochimica et biophysica acta, 2014)
≈ marks a conversion by molar mass, not a printed value. Like-named read-outs stand apart in the source and are kept apart here.

Key:
Staphylococcus aureus = conditions: in mice; cited from earlier work
[1] = system: Mycobacterium tuberculosis; conditions: M. tuberculosis; cited from earlier work
tear lipocalin [2] = target: T1, tear lipocalin (Homo sapiens, UniProt P31025); test: Protection from oxidation of rifamycins by tear lipocalin; type: physicochemical; conditions: tear lipocalin 100 μM; for oxidation by K3Fe(CN)6 after initial protection with tear lipocalin: K3Fe(CN)6 90 μM added after 180 min; for duration of protection from autoxidation by tear lipocalin: drug 15 μM, pH 7.3
T1 sequence (P31025 19-176): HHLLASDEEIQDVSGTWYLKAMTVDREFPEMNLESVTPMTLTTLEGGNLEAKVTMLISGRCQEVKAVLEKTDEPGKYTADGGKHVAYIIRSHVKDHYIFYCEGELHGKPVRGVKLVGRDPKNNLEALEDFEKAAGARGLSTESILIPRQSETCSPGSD

tear lipocalin [3] = target: T1, tear lipocalin; conditions: read-out: Kd for tear lipocalin; known dissociation constant; cited from earlier work
[4] = monitored at 475 nm; cited from earlier work
[5] = system: Mycobacterium smegmatis strain mc^2155; test: microbe, parasite or virus in culture; type: cell-based; conditions: for MIC: Mycolicibacterium smegmatis, MC^2155, 120 h; for resistance factor R (MICwt/MICmutant): mc^2155 versus RHS 234
[6] = Autoxidation of rifamycins in phosphate buffer; type: physicochemical; conditions: for spectral changes under autoxidizing conditions: phosphate buffer pH 7.3, trace metals, up to 24 h
serum albumin = conditions: cited from earlier work
[7] = system: Mycobacterium smegmatis strain RHS 234; type: cell-based; conditions: Mycolicibacterium smegmatis, RHS234, 120 h
CYP3A4 = conditions: cited from earlier work
[8] = in vivo; cited from earlier work
tear lipocalin [9] = target: T1, tear lipocalin; test: Rifamycin binding to tear lipocalin; conditions: increase in binding affinity to tear lipocalin
[10] = in vivo; cited from earlier work; remark: listed apart in the source

Compound	oxidation by K3Fe(CN)6 after initial protection with tear lipocalin (tear lipocalin [2])	duration of protection from autoxidation by tear lipocalin (tear lipocalin [2])	MIC [5] [µM]	spectral changes under autoxidizing conditions [6]	MIC [7] [µM]	further results
CO[C@H]1/C=C/O[C@@]2(C)Oc3c(C)c(O)c4c(c3C2=O)C(=O)C=C(NC(=O)/C(C)=C\C=C\[C@H](C)[C@H](O)[C@@H](C)[C@@H](O)[C@@H](C)[C@H](OC(C)=O)[C@@H]1C)C4=O [Rifamycin S]	–	–	–	–	–	ED50 compared with rifamycin SV (Staphylococcus aureus): higher ED50, than rifamycin SV; MIC [1]: .05 µg/mL (≈ 0.0719 µM)
CO[C@H]1/C=C/O[C@@]2(C)Oc3c(C)c(O)c4c(O)c(c(/C=N/N5CCN(C)CC5)c(O)c4c3C2=O)NC(=O)/C(C)=C\C=C\[C@H](C)[C@H](O)[C@@H](C)[C@@H](O)[C@@H](C)[C@H](OC(C)=O)[C@@H]1C [Rifampin]	rapidly oxidized	at least 3 h	2.43 (≈ 2 µg/mL)	show spectral changes under autoxidizing conditions	0.3 (≈ 0.247 µg/mL)	Kd (tear lipocalin [3]): 128 µM; spectral changes of autoxidation, completeness [4]: nearly complete after 24 h; bound to serum albumin (serum albumin): 80-85%
CO[C@H]1/C=C/O[C@@]2(C)Oc3c(C)c(O)c4c(O)c(c(/C=N/N5CCN(C6CCCC6)CC5)c(O)c4c3C2=O)NC(=O)/C(C)=C\C=C\[C@H](C)[C@H](O)[C@@H](C)[C@@H](O)[C@@H](C)[C@H](OC(C)=O)[C@@H]1C [Rifapentine]	rapidly oxidized	at least 3 h	< 2.28	show spectral changes under autoxidizing conditions	0.14 (≈ 0.123 µg/mL)	–
CO[C@H]1/C=C/O[C@@]2(C)Oc3c(C)c(O)c4c(c3C2=O)C2=NC3(CCN(CC(C)C)CC3)NC2=C(NC(=O)/C(C)=C\C=C\[C@H](C)[C@H](O)[C@@H](C)[C@@H](O)[C@@H](C)[C@H](OC(C)=O)[C@@H]1C)C4=O [Rifabutin]	–	–	0.3 (≈ 0.254 µg/mL)	did not show spectral changes under autoxidizing conditions	0.07 (≈ 0.0593 µg/mL)	–
CO[C@H]1/C=C/O[C@@]2(C)Oc3c(C)c(O)c4c(=O)c(c5oc6cc(N7CCN(CC(C)C)CC7)cc(O)c6nc-5c4c3C2=O)NC(=O)/C(C)=C\C=C\[C@H](C)[C@H](O)[C@@H](C)[C@@H](O)[C@@H](C)[C@H](OC(C)=O)[C@@H]1C [Rifalazil]	–	–	0.13 (≈ 0.122 µg/mL)	did not show spectral changes under autoxidizing conditions	< 0.06	induction of CYP3A4 (CYP3A4): Notably lacking; mycobactericidal activity relative to rifampin [5]: 16 times; resistance factor R (MICwt/MICmutant) [5]: 2; resistance factor R (MICwt/MICmutant) ([5]; listed as rifalazil): ≈ 2; evidence of hepatotoxicity [8]: Notably lacking; free energy change of binding, rifalazil over rifampin (tear lipocalin [9]): about 2.4 kcal/mole; bound to serum albumin (serum albumin; in the circulation of animals): 99%; side effects [10]: transient flue-symptoms, neutropenia, and thrombocytopenia
CO[C@H]1/C=C/O[C@@]2(C)Oc3c(C)c(O)c4c(O)c(cc(O)c4c3C2=O)NC(=O)/C(C)=C\C=C\[C@H](C)[C@H](O)[C@@H](C)[C@@H](O)[C@@H](C)[C@H](OC(C)=O)[C@@H]1C [Rifamycin SV]	appeared better protected	at least 3 h	< 1.38	show spectral changes under autoxidizing conditions	0.69 (≈ 0.481 µg/mL)	MIC [1]: .05 µg/mL (≈ 0.0717 µM); fraction oxidized ([6]; within 30 minutes): less than 10%
CO[C@H]1/C=C/O[C@@]2(C)Oc3c(C)c(O)c4c(O)c(c5c(nc6cc(C)ccn65)c4c3C2=O)NC(=O)/C(C)=C\C=C\[C@H](C)[C@H](O)[C@@H](C)[C@@H](O)[C@@H](C)[C@H](OC(C)=O)[C@@H]1C [Rifaximin]	–	–	< 1.27	did not show spectral changes under autoxidizing conditions	0.16 (≈ 0.126 µg/mL)	–
